Assay [1] deals with T1, ETF (electron transfer flavoprotein) (Cereibacter sphaeroides, UniProt Q9AQC3+Q9AQC4).
T1 construct: gene etfA; plasmid pTE392 (pCDFDuet-1), alpha subunit N-terminal His6-tag, E. coli BL21 (DE3), heterodimer
Briefly: absorbance of ETF-bound FAD at […] nm. In kind it is binding. The note with it: 55 µM ETF reduced by 0.1 µM Mcd, pH 7.8, 30 °C.

The target of assay [2] is T2, (2S)-methylsuccinyl-CoA dehydrogenase (Mcd) (Cereibacter sphaeroides, UniProt D3JV03). The note with it: holoenzyme, pH 7.7, 25 °C.
Assay [3] concerns the target T3, (2S)-methylsuccinyl-CoA dehydrogenase (Mcd) (Cereibacter sphaeroides, UniProt D3JV03, W315F/T317G/E377N). The note with it: FAD-reconstituted enzyme, 12 µM (2S)-methylsuccinyl-CoA, pH 7.5.
In assay [4] the target is T3, (2S)-methylsuccinyl-CoA dehydrogenase (Mcd). The note with it: dioxygen as electron acceptor, substrate made in situ from ethylmalonyl-CoA, pH 7.8, 30 °C.
Assay [5] has as its target T2, (2S)-methylsuccinyl-CoA dehydrogenase (Mcd). The note with it: ETF as electron acceptor (55 µM), pH 7.8, 30 °C.
Assay [6] concerns the target (2S)-methylsuccinyl-CoA dehydrogenase (Mcd) (Cereibacter sphaeroides, UniProt D3JV03, T317G). The note with it: dioxygen as electron acceptor, substrate made in situ from ethylmalonyl-CoA, pH 7.8, 30 °C.

T3 sequence (D3JV03 whole entry W315F/T317G/E377N): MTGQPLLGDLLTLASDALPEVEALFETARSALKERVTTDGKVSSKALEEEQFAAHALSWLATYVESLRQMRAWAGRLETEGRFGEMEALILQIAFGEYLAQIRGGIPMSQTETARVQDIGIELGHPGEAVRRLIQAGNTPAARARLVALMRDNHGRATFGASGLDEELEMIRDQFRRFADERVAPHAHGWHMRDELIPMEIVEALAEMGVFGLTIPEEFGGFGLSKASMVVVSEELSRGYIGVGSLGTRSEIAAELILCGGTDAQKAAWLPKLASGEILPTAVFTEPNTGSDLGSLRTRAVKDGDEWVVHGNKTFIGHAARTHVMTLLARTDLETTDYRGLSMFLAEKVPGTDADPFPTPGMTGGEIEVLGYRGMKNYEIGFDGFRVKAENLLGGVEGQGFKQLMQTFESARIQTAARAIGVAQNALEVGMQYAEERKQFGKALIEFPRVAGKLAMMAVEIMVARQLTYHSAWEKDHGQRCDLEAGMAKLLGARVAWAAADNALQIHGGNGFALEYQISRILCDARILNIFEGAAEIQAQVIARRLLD
T2 sequence (D3JV03 whole entry): as the sequence (D3JV03 whole entry W315F/T317G/E377N) above, with F315W, G317T, N377E counted along it
Chain of (2S)-methylsuccinyl-CoA dehydrogenase (Mcd) (Cereibacter sphaeroides, UniProt D3JV03, T317G) (D3JV03 whole entry T317G): as the sequence (D3JV03 whole entry W315F/T317G/E377N) above, with F315W, N377E counted along it
T1 sequence (Q9AQC4 entry or part of it): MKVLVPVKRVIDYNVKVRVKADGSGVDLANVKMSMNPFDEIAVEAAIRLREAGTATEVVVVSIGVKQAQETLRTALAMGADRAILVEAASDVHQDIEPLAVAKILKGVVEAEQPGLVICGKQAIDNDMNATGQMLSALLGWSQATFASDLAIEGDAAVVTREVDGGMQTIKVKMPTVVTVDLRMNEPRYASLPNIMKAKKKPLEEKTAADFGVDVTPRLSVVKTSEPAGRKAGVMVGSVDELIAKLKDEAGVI
T1 sequence (Q9AQC3 entry or part of it): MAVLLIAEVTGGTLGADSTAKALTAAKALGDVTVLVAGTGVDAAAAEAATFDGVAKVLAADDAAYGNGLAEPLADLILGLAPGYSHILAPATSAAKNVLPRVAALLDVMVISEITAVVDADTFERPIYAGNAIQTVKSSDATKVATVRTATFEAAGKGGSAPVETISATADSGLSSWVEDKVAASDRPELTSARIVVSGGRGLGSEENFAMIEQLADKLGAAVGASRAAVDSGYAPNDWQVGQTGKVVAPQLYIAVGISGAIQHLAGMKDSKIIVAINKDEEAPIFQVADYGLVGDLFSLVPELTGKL

`Cc1cc2nc3c(=O)[nH]c(=O)nc-3n(C[C@H](O)[C@H](O)[C@H](O)COP(=O)(O)OP(=O)(O)OC[C@H]3O[C@@H](n4cnc5c(N)ncnc54)[C@H](O)[C@@H]3O)c2cc1C` [FAD]: the “absorbance of ETF-bound FAD at 440 nm” value in assay [1] is reported as “allowed for the direct observation of ETF-bound FAD”. Besides, the “co-purification; visible absorbance of bound flavin at 440 nm” value in assay [2] is on record as “Concentration of Mcd, which eluted with bound FAD cofactor”. The “50 kDa ultrafiltration of FAD; flow-through spectrum” value in assay [3] was “FAD does not dissociate from the enzyme during catalysis”.
Turning to `C[C@@H](CC(=O)O)C(=O)SCCNC(=O)CCNC(=O)[C@H](O)C(C)(C)COP(=O)(O)OP(=O)(O)OC[C@H]1O[C@@H](n2cnc3c(N)ncnc32)[C@H](O)[C@@H]1OP(=O)(O)O` (mixture of isomers) [(2S)-methylsuccinyl-CoA], the “LC mesaconyl-CoA formation; FAD absorbance at 440 nm” value in assay [4] and in assay [6] was “The re-oxidation of the two enzymes was accompanied by product (mesaconyl-CoA) formation” throughout. Moreover, in assay [5], the “LC-MS mesaconyl-CoA formation; FAD / ETF absorbance at 440 nm” value is recorded as “Mcd showed a fast electron transfer from the CTC to ETF”.

The values above are taken from paper PMC6017585, “Molecular Basis for Converting (2S)-Methylsuccinyl-CoA Dehydrogenase into an Oxidase” (Molecules : A Journal of Synthetic Chemistry and Natural …, 2017).
